Data from patent US8691851B2, “Lanthanide metal complexes useful in treating cancer” (National University of Singapore, priority 2009, dated 2014).

Columns and labels:
pCMX-Gal-mPPARγ-LBD = target: T1, pCMX-Gal-mPPARγ-LBD (Mus musculus, UniProt P37238); assay: Gal4 chimeric receptor luciferase reporter (Method 2); format: cell-based; conditions: SHEP-1 cells, 3 μM, 5 μM, 10 μM and 20 μM
T1 construct: expressed in transfected cells; host or cells: SHEP-1 cells
T1 sequence (P37238 238-503 limits assumed): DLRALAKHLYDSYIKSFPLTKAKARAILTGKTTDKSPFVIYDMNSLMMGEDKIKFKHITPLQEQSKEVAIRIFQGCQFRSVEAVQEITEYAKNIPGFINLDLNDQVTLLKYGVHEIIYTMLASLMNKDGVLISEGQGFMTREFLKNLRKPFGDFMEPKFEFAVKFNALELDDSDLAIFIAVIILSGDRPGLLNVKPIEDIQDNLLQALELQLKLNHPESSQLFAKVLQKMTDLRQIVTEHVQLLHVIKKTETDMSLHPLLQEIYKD
Text: In Method 2, SHEP-1 cancer cells were transfected with a reporter gene containing four copies of a Gal4 binding site (pMH100x4-TK-Luc) and chimeric receptors of a single PPAR isoform (pCMX-Gal-mPPARα-LBD, pCMX-Gal-mPPARδ-LBD, or pCMX-Gal-mPPARγ-LBD, respectively) as previously described in Kim et al, Toxicological Sciences, 85, (2005), pp. 585-593. When C19H24N3O5S5Pr binds to the ligand binding domain (LBD) of the chimeric receptor, the DNA binding domain of Gal4 binds to co-transfected Gal4 binding site and initiates transcription of the firefly luciferase.

[1] = system: AIF (apoptosis inducing factor); conditions: SHEP-1 cells, 5 μM and 10 μM, 24 hr
Experimental: Different concentrations (5 μM and 10 μM) of C19H24N3O5S5Pr (indicated as “Pr-MPO”) were administered into SHEP-1 cancer cells. The detection of AIF in the cytosol and nucleus fractions was determined by Western Blot analysis at 18 hr and 24 hr of treatment with C19H24N3O5S5Pr.

For `CS(C)=O.CS(C)=O.[O-][n+]1ccccc1[S-].[O-][n+]1ccccc1[S-].[O-][n+]1ccccc1[S-].[Pr+3]` [C19H24N3O5S5Pr, praseodymium (2-mercaptopyridine N-oxide)(dimethylsulfoxide)], the “luciferase activity, PPARγ LBD chimeric receptor” value (pCMX-Gal-mPPARγ-LBD) was “induction of luciferase activity” and the AIF translocation [1] was “AIF was translocated into the nucleus”.
